Data reported in ChEMBL document CHEMBL5120794, “Development of 5-hydroxyl-1-azabenzanthrone derivatives as dual binding site and selective acetylcholinesterase inhibitors” (Eur J Med Chem, 2022).
Calls of active or inactive are those of the source. No cut-off for these calls is given here.

Legend:
Acetylcholinesterase = Acetylcholinesterase (Electrophorus electricus, UniProt O42275); test: Inhibition of Electrophorus electricus AchE using […] as substrate incubated for 10 mins followed by substrate addition measured at 0 to 180 secs by Ellman's method
[1] = target: Amyloid-beta precursor protein (Homo sapiens) (UniProt P05067); test: Inhibition of amyloid beta (1 to 42) (unknown origin) self-induced aggregation at 25 uM measured after 46 to 48 hrs by Thioflavin binding assay relative to control; conditions: time 46-48 hrs
PC-12 = test: Cytoprotective activity against H2O2-induced oxidative damage in rat PC-12 cells assessed as cell viability at 1 uM preincubated for 4 hrs followed by H2O2 treatment for another 24 hrs by MTT assay; type: functional, cell-based; conditions: time 28.0 hrs
Cholinesterase = Cholinesterase (Equus caballus, UniProt P81908)
Description: Inhibition of equine serum BchE using S-butyryl thiocholine iodide as substrate incubated for 10 mins followed by substrate addition measured at 0 to 180 secs by Ellman's method

in vitro = conditions: PAMPA

Chain of Cholinesterase (P81908 whole entry): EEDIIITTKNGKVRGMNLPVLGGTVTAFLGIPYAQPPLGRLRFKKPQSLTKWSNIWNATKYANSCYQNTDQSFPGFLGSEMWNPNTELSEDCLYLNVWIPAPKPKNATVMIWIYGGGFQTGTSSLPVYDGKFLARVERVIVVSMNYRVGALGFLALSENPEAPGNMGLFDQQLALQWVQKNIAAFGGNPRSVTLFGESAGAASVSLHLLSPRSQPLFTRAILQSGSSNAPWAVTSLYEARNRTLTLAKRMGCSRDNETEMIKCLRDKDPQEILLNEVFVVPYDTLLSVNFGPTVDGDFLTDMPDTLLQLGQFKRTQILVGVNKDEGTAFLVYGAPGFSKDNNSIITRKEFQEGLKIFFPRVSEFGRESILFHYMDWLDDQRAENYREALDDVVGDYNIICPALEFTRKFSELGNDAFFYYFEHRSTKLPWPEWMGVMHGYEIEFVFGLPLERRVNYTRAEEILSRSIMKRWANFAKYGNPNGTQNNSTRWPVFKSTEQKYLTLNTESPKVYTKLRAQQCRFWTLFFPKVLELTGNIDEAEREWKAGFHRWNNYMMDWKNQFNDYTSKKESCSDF
Chain of Amyloid-beta precursor protein (Homo sapiens) (P05067 whole entry): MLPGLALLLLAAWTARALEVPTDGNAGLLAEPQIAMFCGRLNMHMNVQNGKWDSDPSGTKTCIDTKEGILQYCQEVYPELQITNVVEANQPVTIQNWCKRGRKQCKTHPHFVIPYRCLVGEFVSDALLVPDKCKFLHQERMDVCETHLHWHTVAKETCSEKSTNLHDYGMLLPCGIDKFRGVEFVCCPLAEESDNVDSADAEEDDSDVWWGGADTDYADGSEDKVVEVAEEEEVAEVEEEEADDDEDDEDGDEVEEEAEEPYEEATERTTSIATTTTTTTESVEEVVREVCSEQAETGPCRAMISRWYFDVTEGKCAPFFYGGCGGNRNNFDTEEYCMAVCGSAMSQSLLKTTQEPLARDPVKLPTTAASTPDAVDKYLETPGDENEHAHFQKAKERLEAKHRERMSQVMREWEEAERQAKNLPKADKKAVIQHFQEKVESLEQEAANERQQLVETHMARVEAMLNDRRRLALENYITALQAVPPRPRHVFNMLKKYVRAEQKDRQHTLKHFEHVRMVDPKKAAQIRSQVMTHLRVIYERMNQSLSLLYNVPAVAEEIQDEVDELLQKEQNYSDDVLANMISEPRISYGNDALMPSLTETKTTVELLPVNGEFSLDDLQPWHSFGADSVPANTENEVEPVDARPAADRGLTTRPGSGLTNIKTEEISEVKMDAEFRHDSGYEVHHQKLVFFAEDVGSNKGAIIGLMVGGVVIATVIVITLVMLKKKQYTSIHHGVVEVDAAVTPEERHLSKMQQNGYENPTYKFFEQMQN
Chain of Acetylcholinesterase (O42275 whole entry): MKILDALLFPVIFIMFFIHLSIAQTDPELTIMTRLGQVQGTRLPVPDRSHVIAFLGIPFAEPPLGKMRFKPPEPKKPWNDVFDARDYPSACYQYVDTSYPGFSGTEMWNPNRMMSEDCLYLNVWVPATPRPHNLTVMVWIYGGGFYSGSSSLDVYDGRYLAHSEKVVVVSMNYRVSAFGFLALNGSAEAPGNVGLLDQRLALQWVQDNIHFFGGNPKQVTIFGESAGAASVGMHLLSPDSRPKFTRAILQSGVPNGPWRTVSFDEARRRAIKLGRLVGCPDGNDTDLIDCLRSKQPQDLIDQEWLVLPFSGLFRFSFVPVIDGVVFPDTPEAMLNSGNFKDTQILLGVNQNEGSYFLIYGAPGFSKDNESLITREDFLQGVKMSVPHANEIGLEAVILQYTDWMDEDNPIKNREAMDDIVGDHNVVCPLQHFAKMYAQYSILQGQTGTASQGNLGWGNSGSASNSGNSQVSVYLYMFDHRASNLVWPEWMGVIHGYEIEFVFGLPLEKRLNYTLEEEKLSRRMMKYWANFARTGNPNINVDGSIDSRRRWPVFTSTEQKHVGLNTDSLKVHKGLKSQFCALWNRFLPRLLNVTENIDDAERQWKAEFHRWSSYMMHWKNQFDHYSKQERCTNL

Row | Structure (SMILES) | IC50 (Acetylcholinesterase) | inhibition [1] | Activity (PC-12) | IC50 (Cholinesterase) | Papp (in vitro)
1 | O=C1c2ccccc2-c2nccc3cc(OCCCCN4CCCCC4)cc1c23 | 0.15 µM | 32.1% | Active | 15.4 µM | –
2 | CCn1cc(C(=O)O)c(=O)c2cc(F)c(N3CCNC(C)C3)c(F)c21 (stereo not drawn) [LOMEFLOXACIN] | – | – | – | – | 0.9 ×10⁻⁶ cm/s
3 | O=C1c2ccccc2-c2nccc3cc(OCCN4CCCCC4)cc1c23 | 3.69 µM | 27.5% | Active | 6.71 µM | –
4 | O=C1c2ccccc2-c2nccc3cc(OCCCN4CCN(CCO)CC4)cc1c23 | 0.19 µM | 9.7% | Active | > 100 µM | –
